Data as given in patent publication US20250041429A1, “COMPOUND HAVING BTK PROTEIN DEGRADATION ACTIVITY, AND MEDICAL USES THEREOF” (UBIX THERAPEUTICS, INC., priority 2021, published 2025).

Target: T1, BTK protein (Homo sapiens, UniProt Q06187)
T1 construct: endogenous in cells; host or cells: TMD-8 cells
Test: Measurement of BTK protein degradation ability in TMD-8 cells (Western blotting)
Type: cell-based
Settings: harvested after 24 hours; for BTK degradation (%) 10 nM: compound 10 nM; for BTK degradation (%) 100 nM: compound 100 nM; for BTK degradation (%) 1 nM: compound 1 nM
Protocol: TMD-8, RAMOS, or 293T BTK MUT (C481S) cells were treated with the synthesized compounds, and then the amount of BTK protein present in the cells was measured using Western blotting detection. The protocol for the experiment conducted using TMD-8 cells was as follows:
[Culture] TMD-8 cells were resuspended in RPMI1640 MEDIUM (Hyclone, SH30027.01), 10% FBS (Hyclone, SV30207.02), and 1% Penicillin-streptomycin (Welgene, LS 202-02) media, and 1 mL of this suspension was seeded in a 12-well plate at a cell concentration of 1×10^6/mL.
[Compound treatment] The 12-well plate was treated as follows: The 10 mM stock was serially diluted 1/10 with DMSO (3 μL+27 μL DMSO), and cells were treated with compounds at final concentrations of 0.1, 1, 10 μM or 0.0001, 0.001, 0.01, 0.1 μM, and harvested after 24 hours. In the negative control group, DMSO diluted 1/10 was added to the media. (3 μL DMSO+27 μL media)
[Harvest] Each well was pipetted with a 1 mL pipette, collected in a 1.5 mL microtube, and centrifuged (500 g, 5 min, 4° C.). After removing the supernatant, it was washed with PBS and centrifuged again (500 g, 5 min, 4° C.). The supernatant was removed and the pellet was collected.
[Cell lysis and Sample preparation] lysis buffer was prepared as follows: RIPA buffer (Biosesang, RC2038-050-00), 0.5 mM PMSF (SIGMA, P7626) and 1× Protease/Phosphatase Inhibitor (Cell signaling, 5872S) were added at 60-70 μL per well and left on ice for 30 minutes. (Vortexing at 0 and 30 minutes, respectively), followed by sonication (10 seconds pulse, 30 seconds rest, 5 cycles, 70% amplification) and centrifuge (15000 g, 15 min, 4° C.). Only the supernatant was collected and transferred to a new microtube. The samples were diluted by ½ with RIPA buffer in a 96-well plate. 200 μL of the mixture A:B=50:1 of the BCA Protein Assay Kit (iNtRON, 21071) was added each, stayed at 37° C. for 30 minutes, and cooled for 10 minutes. Afterwards, absorbance was measured at 562 nm using BioTek's SYNERGY H1 microplate reader. After making a sample by quantifying the protein using the measured value, it was boiled at 70° C. for 10 minutes. The sample buffer used at this time was a mixture of NuPAGE or Bolt 4× sample buffer (Invitrogen) and each 10× sample reducing agent according to the gel to be used. RIPA buffer was used for protein dilution.
[Western blotting detection method] The same amount of sample was loaded on NuPAGE or Bolt Bis-tris 4-12% gradient gel and run (200 V, 35 minutes). It was transferred to a […] NC membrane using Trans-blot Turbo (BIO-RAD) (1.3 A constant, 25 V limit, 15 minutes). For blocking, skim milk or Intercept Blocking Buffer (LI-COR, 927-60001): 0.1% TBST=1:1 was used at room temperature for 1 hour. Anti BTK Rabbit (1:1,000 in 5% skim milk/0.2% TBST, size: 77 kDa, Cell signaling Technology) was reacted at 4° C. for 16 hours or at room temperature for 2 hours. Anti GAPDH Rabbit (1:10,000 in 5% BSA/0.2% TBST, size: 36 kDa, GENETEX) and Anti β-actin mouse (1:10,000 in 5% BSA/0.2% TBST, RT, size: 43 kDa, GENETEX) were reacted at room temperature for 1 hour or 3 hours. The samples were washed 3 times with 0.5% TBST for 5 minutes each. Secondary antibodies, Anti-Rabbit IgG (1:5,000 in 5% Skim milk/TBST, CST), IRDye® 800CW Goat anti-Rabbit IgG Secondary Antibody (1:10,000 in 5% skim/TBST, RT 45 min), IRDye® 680RD Goat anti-Mouse IgG Secondary Antibody (1:10,000 in 5% skim/TBST, RT 45 min) were added depending on each sample and reacted for 45 minutes on a rocker at room temperature. The samples were washed 5 times with 0.5% TBST for 5 minutes each and detected with LI-COR's Odyssey. At this time, BTK was detected using SuperSignal West Pico PLUS Chemiluminescent Substrate or SuperSignal West femto Maximum Sensitivity Substrate, and house-keeping genes were detected as is.

T1 sequence (Q06187 whole entry): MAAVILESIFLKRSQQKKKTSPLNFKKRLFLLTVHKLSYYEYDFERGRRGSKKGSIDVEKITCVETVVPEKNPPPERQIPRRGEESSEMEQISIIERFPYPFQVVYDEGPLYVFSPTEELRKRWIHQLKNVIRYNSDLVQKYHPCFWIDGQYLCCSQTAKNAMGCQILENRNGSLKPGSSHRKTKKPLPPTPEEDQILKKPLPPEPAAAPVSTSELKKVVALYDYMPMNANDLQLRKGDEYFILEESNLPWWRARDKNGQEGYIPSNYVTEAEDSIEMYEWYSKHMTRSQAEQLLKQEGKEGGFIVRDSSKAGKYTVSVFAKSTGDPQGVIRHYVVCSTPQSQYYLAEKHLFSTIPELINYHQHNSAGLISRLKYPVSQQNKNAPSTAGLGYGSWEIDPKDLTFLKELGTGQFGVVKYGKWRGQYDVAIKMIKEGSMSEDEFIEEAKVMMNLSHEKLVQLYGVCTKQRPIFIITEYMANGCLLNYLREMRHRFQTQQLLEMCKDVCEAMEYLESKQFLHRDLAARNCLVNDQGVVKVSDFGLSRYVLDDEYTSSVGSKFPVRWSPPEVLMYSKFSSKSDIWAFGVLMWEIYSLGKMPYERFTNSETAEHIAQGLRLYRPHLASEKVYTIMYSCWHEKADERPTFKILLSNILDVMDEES

Row | BTK degradation (%) 10 nM | BTK degradation (%) 100 nM | BTK degradation (%) 1 nM | SMILES
1 | 72% | 91.5% |  | Cc1c(NC(=O)N2CC(OC(C)C)C2)cc(F)cc1-c1ccnc(Nc2ccc(N3CCN(CC4CCN(c5ccc6c(c5)C(=O)N(C5CCC(=O)NC5=O)C6=O)CC4)CC3)cc2)n1 (stereo not drawn) [Example 23, N-(3-(2-((4-(4-((1-(2-(2,6-dioxopiperidin-3-yl)-1,3-dioxoisoindolin-5-yl)piperidin-4-yl)methyl)piperazin-1-yl)phenyl)amino)pyrimidin-4-yl)-5-fluoro-2-methylphenyl)-3-isopropoxyazetidine-1-carboxamide]
2 | 6.5% | 20% |  | Cc1c(NC(=O)c2cnn(C(C)(C)C)c2)cc(F)cc1-c1ccnc(Nc2ccc(N3CCN(CC4CCN(c5ccc6c(c5)C(=O)N(C5CCC(=O)NC5=O)C6=O)CC4)CC3)cc2)n1 (stereo not drawn) [Example 24, 1-(tert-butyl)-N-(3-(2-((4-(4-((1-(2-(2,6-dioxopiperidin-3-yl)-1,3-dioxoisoindolin-5-yl)piperidin-4-yl)methyl)piperazin-1-yl)phenyl)amino)pyrimidin-4-yl)-5-fluoro-2-methylphenyl)-1H-pyrazole-4-carboxamide]
3 | 8.5% | 24% |  | Cc1c(NC(=O)c2cn(C(C)(C)C)nn2)cc(F)cc1-c1ccnc(Nc2ccc(N3CCN(CC4CCN(c5ccc6c(c5)C(=O)N(C5CCC(=O)NC5=O)C6=O)CC4)CC3)cc2)n1 (stereo not drawn) [Example 25, 1-(tert-butyl)-N-(3-(2-((4-(4-((1-(2-(2,6-dioxopiperidin-3-yl)-1,3-dioxoisoindolin-5-yl)piperidin-4-yl)methyl)piperazin-1-yl)phenyl)amino)pyrimidin-4-yl)-5-fluoro-2-methylphenyl)-1H-1,2,3-triazole-4-carboxamide]
4 | 71.5% | 94.5% | 26.5% | Cc1c(NC(=O)N2CC(OC(C)C)C2)cc(F)cc1-c1ccnc(Nc2ccc(N3CCN(CC4CN(c5ccc6c(c5)C(=O)N(C5CCC(=O)NC5=O)C6=O)C4)CC3)cc2)n1 (stereo not drawn) [Example 27, N-(3-(2-((4-(4-((1-(2-(2,6-dioxopiperidin-3-yl)-1,3-dioxoisoindolin-5-yl)azetidin-3-yl)methyl)piperazin-1-yl)phenyl)amino)pyrimidin-4-yl)-5-fluoro-2-methylphenyl)-3-isopropoxyazetidine-1-carboxamide]
5 | 92% | 98.5% | 58.5% | Cc1cc(-c2ccnc(Nc3ccc(N4CCN(CC5CN(c6ccc7c(c6)C(=O)N(C6CCC(=O)NC6=O)C7=O)C5)CC4)cc3)n2)ccc1CNC(=O)c1cn(C(C)(C)C)nn1 (stereo not drawn) [Example 32, 1-(tert-butyl)-N-(4-(2-((4-(4-((1-(2-(2,6-dioxopiperidin-3-yl)-1,3-dioxoisoindolin-5-yl)azetidin-3-yl)methyl)piperazin-1-yl)phenyl)amino)pyrimidin-4-yl)-2-methylbenzyl)-1H-1,2,3-triazole-4-carboxamide]
6 | 93.5% | 99.5% | 49.5% | Cc1cc(-c2ccnc(Nc3ccc(N4CCN(CC5CCN(c6ccc7c(c6)C(=O)N(C6CCC(=O)NC6=O)C7=O)CC5)CC4)cc3)n2)ccc1CNC(=O)c1cnn(C(C)C)c1 (stereo not drawn) [Example 33, N-(4-(2-((4-(4-((1-(2-(2,6-dioxopiperidin-3-yl)-1,3-dioxoisoindolin-5-yl)piperidin-4-yl)methyl)piperazin-1-yl)phenyl)amino)pyrimidin-4-yl)-2-methylbenzyl)-1-isopropyl-1H-pyrazole-4-carboxamide]

The next lines start with the compound.

Row | SMILES | BTK degradation (%) 10 nM | BTK degradation (%) 100 nM | BTK degradation (%) 1 nM
7 | Cc1c(NC(=O)N2CC(OC(C)C)C2)cc(F)cc1-c1ccnc(Nc2ccc(N3CCN(CC4CCN(c5ccc6c(n5)CN(C5CCC(=O)NC5=O)C6=O)CC4)CC3)cc2)n1 (stereo not drawn) [Example 26, N-(3-(2-((4-(4-((1-(6-(2,6-dioxopiperidin-3-yl)-5-oxo-6,7-dihydro-5H-pyrrolo[3,4-b]pyridin-2-yl)piperidin-4-yl)methyl)piperazin-1-yl)phenyl)amino)pyrimidin-4-yl)-5-fluoro-2-methylphenyl)-3-isopropoxyazetidine-1-carboxamide] | 76% | 93% | 15.5%
8 | Cc1cc(CNC(=O)N2CC(OC(C)C)C2)cc(-c2ccnc(Nc3ccc(N4CCN(CC5CCN(c6ccc7c(c6)C(=O)N(C6CCC(=O)NC6=O)C7=O)CC5)CC4)cc3)n2)c1 (stereo not drawn) [Example 28, N-(3-(2-((4-(4-((1-(2-(2,6-dioxopiperidin-3-yl)-1,3-dioxoisoindolin-5-yl)piperidin-4-yl)methyl)piperazin-1-yl)phenyl)amino)pyrimidin-4-yl)-5-methylbenzyl)-3-isopropoxyazetidine-1-carboxamide] | 12% | 4.5% | 18%
9 | Cc1cc(NC(=O)N2CC(OC(C)C)C2)cc(-c2ccnc(Nc3ccc(N4CCN(CC5CCN(c6ccc7c(c6)C(=O)N(C6CCC(=O)NC6=O)C7=O)CC5)CC4)cc3)n2)c1 (stereo not drawn) [Example 29, N-(3-(2-((4-(4-((1-(2-(2,6-dioxopiperidin-3-yl)-1,3-dioxoisoindolin-5-yl)piperidin-4-yl)methyl)piperazin-1-yl)phenyl)amino)pyrimidin-4-yl)-5-methylphenyl)-3-isopropoxyazetidine-1-carboxamide] | 40.5% | 81.5% | 7%
10 | Cc1cc(-c2ccnc(Nc3ccc(N4CCN(CC5CCN(c6ccc7c(c6)C(=O)N(C6CCC(=O)NC6=O)C7=O)CC5)CC4)cc3)n2)ccc1COC(=O)N1CC(OC(C)C)C1 (stereo not drawn) [Example 30, 4-(2-((4-(4-((1-(2-(2,6-dioxopiperidin-3-yl)-1,3-dioxoisoindolin-5-yl)piperidin-4-yl)methyl)piperazin-1-yl)phenyl)amino)pyrimidin-4-yl)-2-methylbenzyl 3-isopropoxyazetidine-1-carboxylate] | 20.5% | 91.5% | −1%
11 | Cc1cc(-c2ccnc(Nc3ccc(N4CCN(CC5CN(c6ccc7c(c6)C(=O)N(C6CCC(=O)NC6=O)C7=O)C5)CC4)cc3)n2)ccc1CNC(=O)c1cnn(C(C)(C)C)c1 (stereo not drawn) [Example 31, 1-(tert-butyl)-N-(4-(2-((4-(4-((1-(2-(2,6-dioxopiperidin-3-yl)-1,3-dioxoisoindolin-5-yl)azetidin-3-yl)methyl)piperazin-1-yl)phenyl)amino)pyrimidin-4-yl)-2-methylbenzyl)-1H-pyrazole-4-carboxamide] | 94.5% | 98.5% | 61.5%
